Experimental data taken from US10131642B1, “Aldosterone synthase inhibitors” (Boehringer Ingelheim International GmbH, priority 2015, dated 2018).

What was measured:
[1] = molecular target: T1, aldosterone synthase (CYP11B2) (Macaca fascicularis, UniProt A0A2K5UPL9); assay: Inhibition of aldosterone synthase (cynomolgus adrenal mitochondria, aldosterone by mass spectrometry); format: biochemical, cynomolgus monkey; conditions: cynomolgus adrenal gland mitochondria, 2 μM corticosterone substrate, 90 minutes at 37° C.
T1 construct: cynomolgus adrenal gland mitochondria as the source of aldosterone synthase (CYP11B2); from tissue; host or cells: cynomolgus monkey adrenal gland mitochondria
T1 sequence (A0A2K5UPL9 1-503): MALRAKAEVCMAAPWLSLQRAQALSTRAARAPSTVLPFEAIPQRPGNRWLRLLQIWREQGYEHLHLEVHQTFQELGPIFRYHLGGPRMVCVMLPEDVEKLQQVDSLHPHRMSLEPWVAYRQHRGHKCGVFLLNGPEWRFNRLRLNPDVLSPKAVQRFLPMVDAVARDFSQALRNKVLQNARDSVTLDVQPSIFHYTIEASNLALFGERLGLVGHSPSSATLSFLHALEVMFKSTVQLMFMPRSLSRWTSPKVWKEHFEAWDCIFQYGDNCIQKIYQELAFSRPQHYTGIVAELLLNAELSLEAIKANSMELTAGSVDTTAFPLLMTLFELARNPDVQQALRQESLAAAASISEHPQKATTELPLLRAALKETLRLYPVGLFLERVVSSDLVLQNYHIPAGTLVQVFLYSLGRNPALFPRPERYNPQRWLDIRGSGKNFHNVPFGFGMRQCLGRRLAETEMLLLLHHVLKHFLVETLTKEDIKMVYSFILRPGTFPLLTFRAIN
Protocol: (§1) The aldosterone synthase and cortisol synthase inhibition assays employ cynomolgus adrenal gland mitochondria as the source of aldosterone synthase (CYP11B2) and cortisol synthase (CYP11B1). Mitochondria are prepared from frozen cynomolgus monkey adrenal glands according to Method A described in by J. D. McGarry et al. (Biochem. J., 1983, 214, 21-28), with a final resuspension in the AT buffer described in R. Yamaguchi et al. (Cell Death and Differentiation, 2007, 14, 616-624), frozen as aliquots in liquid nitrogen and stored at −80° C. until use. Activity of CYP11B2 and CYP11B1 in these preparations is defined as the amount of enzyme that generates 1 pmol of product in one hour under the conditions described.
Assays are performed in 96-well format in a final volume of 60 µL/well, containing 100 mM potassium phosphate, pH 7.4, 1% (v/v) DMSO, and additionally, 2 μM of corticosterone and 50 units of CYP11B2 activity. Reactions are started by the addition of NADPH to 1 mM and allowed to proceed for 90 minutes at 37° C. Reactions are terminated by the addition of 60 μL of MeCN containing an internal standard for mass spectrometry. One hundred microliters are then transferred to a glass filter plate and centrifuged at 570×g for 5 minutes and the filtrate is collected. Reaction product aldosterone is quantified by mass spectrometry. To determine the assay blank value (0% activity), NADPH is omitted from some reactions.
Dose dependent inhibition is quantified by the inclusion of compound at various concentrations. Maximum activity (100%) is defined by reactions containing NADPH, but without compound. Activities at each concentration are expressed as a percentage of the maximum activity (y-axis) and plotted against concentration of compound (x-axis) and the concentration corresponding to 50% activity (IC50) determined using the XLFit curve-fitting program using a 4-parameter logistic model.

[2] = molecular target: cortisol synthase (CYP11B1) (Macaca fascicularis, UniProt A0A2K5ULY1); assay: Inhibition of cortisol synthesis (cynomolgus adrenal mitochondria, cortisol by mass spectrometry); format: biochemical, cynomolgus monkey; conditions: cynomolgus adrenal gland mitochondria, 11-deoxycortisol as substrate, cortisol measured as product; read-out: CYP11B1 Inhibition IC50
Protocol: as §1, with “described. Dose dependent inhibition is quantified by the inclusion of compound at various concentrations. Maximum activity (100%) is defined by reactions containing NADPH, but without compound. Activities at each concentration are expressed as a percentage of the maximum activity (y-axis) and plotted against concentration of compound (x-axis) and the concentration corresponding to 50% activity (IC50) determined using the XLFit curve-fitting program using a 4-parameter logistic model. Assays are performed as for aldosterone synthase except for the use of 150 units of CYP11B1, 11-deoxycortisol as substrate and cortisol measured as product.” for “described.”

Row | SMILES | IC50 [1] [nM] | IC50 [2] [nM]
1 | CC(C)C1CC(=O)c2c(noc2CC2CCN(C(=O)CS(C)(=O)=O)CC2)C1 (stereo not drawn) [Cpd 20, 6-Isopropyl-3-[1-(2-methanesulfonyl-acetyl)-piperidin-4-ylmethyl]-6,7-dihydro-5H-benzo[c]isoxazol-4-one] | 410 | 14000
2 | CC1(C)CC(=O)c2c(noc2Cc2ccc(F)cc2)C1 [Cpd 13, 3-(4-Fluoro-benzyl)-6,6-dimethyl-6,7-dihydro-5H-benzo[c]isoxazol-4-one] | 190 | 22000
3 | COc1ccc(Cc2onc3c2C(=O)OC(C)(C)C3)cc1 [Cpd 89, 3-(4-Methoxy-benzyl)-6,6-dimethyl-6,7-dihydro-pyrano[4,3-c]isoxazol-4-one] | 27 | 9800
4 | CC1CC(=O)c2c(noc2Cc2ccc(C(=O)O)cc2)C1 (stereo not drawn) [Cpd 41, 4-(6-Methyl-4-oxo-4,5,6,7-tetrahydro-benzo[c]isoxazol-3-ylmethyl)-benzoic acid] | 660 | 20000
5 | CC1(C)Cc2noc(Cc3ccc(C(=O)N4CC[C@@H](O)C4)cc3)c2C(=O)O1 [Cpd 93, 3-[4-((R)-3-Hydroxy-pyrrolidine-1-carbonyl)-benzyl]-6,6-dimethyl-6,7-dihydro-pyrano[4,3-c]isoxazol-4-one] | 73 | 2600
6 | O=C1CC2(CCC2)Cc2noc(Cc3ccccc3)c21 [Cpd 1, 6,6-spiro-cyclobutyl-3-benzyl-6,7-dihydro-5-H-benzo[c]isoxazole-4-one] | 7.2 | 1100
7 | COc1ccc(Cc2onc3c2C(=O)CC(C)(C)C3)cn1 [Cpd 10, 3-(6-Methoxy-pyridin-3-ylmethyl)-6,6-dimethyl-6,7-dihydro-5H-benzo[c]isoxazol-4-one] | 110 | 7700
8 | CS(=O)(=O)CCCOc1ccc(Cc2onc3c2C(=O)CC(CC2CC2)C3)cc1 (stereo not drawn) [Cpd 24, 6-Cyclopropylmethyl-3-[4-(3-methanesulfonyl-propoxy)-benzyl]-6,7-dihydro-5H-benzo[c]isoxazol-4-one] | 17 | 1300
9 | CN(CCS(C)(=O)=O)C(=O)c1ccc(Cc2onc3c2C(=O)CC(C)(C)C3)cc1 [Cpd 64, 4-(6,6-Dimethyl-4-oxo-4,5,6,7-tetrahydro-benzo[c]isoxazol-3-ylmethyl)-N-(2-methanesulfonyl-ethyl)-N-methyl-benzamide] | 110 | 9300
10 | O=C1CC(Cc2ccccc2)Cc2noc(Cc3ccc(C(=O)N4CC[C@@H](O)C4)cc3)c21 (stereo partly drawn) [Cpd 57, 6-Benzyl-3-[4-((R)-3-hydroxy-pyrrolidine-l-carbonyl)-benzyl]-6,7-dihydro-5H-benzo[c]isoxazol-4-one] | 80 | 2600
11 | CC(C)C1CC(=O)c2c(noc2Cc2ccc(C#N)cc2)C1 (single isomer, unassigned) [Cpd 39B, 4-(-6-Isopropyl-4-oxo-4,5,6,7-tetrahydro-benzo[c]isoxazol-3-ylmethyl)-benzonitrile] | 120 | 3400
12 | CC1(C)CC(=O)c2c(noc2Cc2ccc(C#N)cc2)C1 [Cpd 23, 4-(6,6-Dimethyl-4-oxo-4,5,6,7-tetrahydro-benzo[c]isoxazol-3-ylmethyl)-benzonitrile] | 69 | 74000
13 | CC1(C)CC(=O)c2c(noc2Cc2ccc(C(=O)N3CC[C@H](O)C3)cc2)C1 [Cpd 65, 3-[4-((S)-3-Hydroxy-pyrrolidine-1-carbonyl)-benzyl]-6,6-dimethyl-6,7-dihydro-5H-benzo[c]isoxazol-4-one] | 110 | 7600
14 | CC1(C)Cc2noc(Cc3ccc(C(N)=O)cc3)c2C(=O)O1 [Cpd 95, 4-(6,6-Dimethyl-4-oxo-6,7-dihydro-4H-pyrano[4,3-c]isoxazol-3-ylmethyl)-benzamide] | 71 | 16000
15 | CC1(C)CC(=O)c2c(noc2Cc2ccc3c(c2)OCCO3)C1 [Cpd 3, 3-(2,3-Dihydro-benzo[1,4]dioxin-6-ylmethyl)-6,6-dimethyl-6,7-dihydro-5H-benzo[c]isoxazol-4-one] | 17 | 590
16 | CC1(C)CC(=O)c2c(noc2Cc2cccc(C#N)c2)C1 [Cpd 11, 3-(6,6-Dimethyl-4-oxo-4,5,6,7-tetrahydro-benzo[c]isoxazol-3-ylmethyl)-benzonitrile] | 140 | 9300
17 | CN1CCN(C(=O)c2ccc(Cc3onc4c3C(=O)OC(C)(C)C4)cc2)CC1=O [Cpd 97, 6,6-Dimethyl-3-[4-(4-methyl-3-oxo-piperazine-1-carbonyl)-benzyl]-6,7-dihydro-pyrano[4,3-c]isoxazol-4-one] | 170 | 11000
18 | CC(C)C1CC(=O)c2c(noc2CC2CCOCC2)C1 (stereo not drawn) [Cpd 7, 6-Isopropyl-3-(tetrahydro-pyran-4-ylmethyl)-6,7-dihydro-5H-benzo[c]isoxazol-4-one] | 33 | 20000
19 | COCC(=O)N1CCC(Cc2onc3c2C(=O)CC(C(C)C)C3)CC1 (stereo not drawn) [Cpd 18, 6-Isopropyl-3-[1-(2-methoxy-acetyl)-piperidin-4-ylmethyl]-6,7-dihydro-5H-benzo[c]isoxazol-4-one] | 89 | 2800
20 | CC1(C)Cc2noc(Cc3ccc(C#N)cc3)c2C(=O)O1 [Cpd 87, 4-(6,6-Dimethyl-4-oxo-6,7-dihydro-4H-pyrano[4,3-c]isoxazol-3-ylmethyl)-benzonitrile] | 220 | 77000
21 | CC1(C)CC(=O)c2c(noc2Cc2ccc(Br)cc2)C1 [Cpd 33, 3-(4-Bromo-benzyl)-6,6-dimethyl-6,7-dihydro-5H-benzo[c]isoxazol-4-one] | 92 | 4100
22 | CN(C)C(=O)CCCOc1ccc(Cc2onc3c2C(=O)CC(C)(C)C3)cc1 [Cpd 79] | 23 | 7800
23 | CC1(C)CC(=O)c2c(noc2Cc2ccc(C(=O)NCCC#N)cc2)C1 [Cpd 68, N-(2-Cyano-ethyl)-4-(6,6-dimethyl-4-oxo-4,5,6,7-tetrahydro-benzo[c]isoxazol-3-ylmethyl)-benzamide] | 160 | 7800
24 | CC1(C)CC(=O)c2c(noc2Cc2ccc(C(=O)N3CCCC3)cc2)C1 [Cpd 52, 6,6-Dimethyl-3-[4-(pyrrolidine-1-carbonyl)-benzyl]-6,7-dihydro-5H-benzo[c]isoxazol-4-one] | 32 | 14000
25 | NC(=O)N1CCC(Cc2onc3c2C(=O)CC2(CCC2)C3)CC1 [Cpd 22, 4-(6,6-spiro-cyclobutyll-4-oxo-4,5,6,7-tetrahydro-benzo[c]isoxazol-3-ylmethyl)-piperidine-l-carboxylic acid amide] | 57 | 3500
26 | CN(CCO)C(=O)c1ccc(Cc2onc3c2C(=O)OC(C)(C)C3)cc1 [Cpd 96, 4-(6,6-Dimethyl-4-oxo-6,7-dihydro-4H-pyrano[4,3-c]isoxazol-3-ylmethyl)-N-(2-hydroxy-ethyl)-N-methyl-benzamide] | 73 | 10000
27 | CC(=O)N1CCC(Cc2onc3c2C(=O)CC2(CCC2)C3)CC1 [Cpd 16, 3-(1-Acetyl-piperidin-4-ylmethyl)-6,6-spiro-cyclobutyl-6,7-dihydro-5H-benzo[c]isoxazol-4-one] | 47 | 3900
